How the values were obtained:
[1] = tested on: α-isomaltosyl-transferring enzyme; test: Influence of metal ions on activity of α-isomaltosyl-transferring enzyme (Strain C11); assay type: biochemical, Bacillus globisporus C11; settings: for Relative activity: in the presence of 1 mM of each metal ion, None = 100; for Effect on enzyme activity (in words): 1 mM, summary of Table 8
Description: (§1) The α-isomaltosyl-transferring enzyme was assayed for enzymatic activity by dissolving panose in 100 mM acetate buffer (pH 6.0) to give a concentration of 2% (w/v) for a substrate solution, adding a 0.5 ml of an enzyme solution to 0.5 ml of the substrate solution, enzymatically reacting the mixture solution at 35° C. for 30 min, suspending the reaction mixture by boiling for 10 min, and quantifying glucose, among the cyclotetrasaccharide and glucose formed in the reaction mixture, by the glucose oxidase method. One unit activity of the α-isomaltosyl-transferring enzyme is defined as the enzyme amount that forms one micromole of glucose per minute under the above enzymatic reaction conditions.
(§2) The influence of metal ions on the activity of α-isomaltosyl-transferring enzyme was examined in the presence of 1 mM of each metal-ion according to the assay for the enzyme activity.

[2] = tested on: α-isomaltosyl-transferring enzyme; test: Influence of metal ions on activity of α-isomaltosyl-transferring enzyme (Strain C9); assay type: biochemical, Bacillus globisporus C9; settings: for Relative activity: in the presence of 1 mM of each metal ion, None = 100; for Effect on enzyme activity (in words): 1 mM, summary of Table 4
Description: as §1, §2

[3] = tested on: α-isomaltosylglucosaccharide-forming enzyme; test: Influence of metal ions on enzyme activity, Experiment 4-2 (Strain C11); assay type: biochemical, Bacillus globisporus C11; settings: for Relative activity: in the presence of 1 mM of each metal ion, None = 100; for Effect on enzyme activity (in words): 1 mM, summary of Table 6
[4] = tested on: α-isomaltosylglucosaccharide-forming enzyme; test: Influence of metal ions on activity of α-isomaltosylglucosaccharide-forming enzyme (Strain C9); assay type: biochemical, Bacillus globisporus C9; settings: for Relative activity: in the presence of 1 mM of each metal ion, None = 100; for Effect on enzyme activity (in words): 1 mM, summary of Table 2
Description: The activities of these enzymes were assayed as follows: The α-isomaltosylglucosaccharide-forming enzyme of the present invention was assayed for enzymatic activity by dissolving maltotriose in 100 mM acetate buffer (pH 6.0) to give a concentration of 2% (w/v) for a substrate solution, adding a 0.5 ml of an enzyme solution to a 0.5 ml of the substrate solution, enzymatically reacting the mixture solution at 35° C. for 60 min, suspending the reaction mixture by heating at 100° C. for 10 min, and quantifying maltose, among the isomaltosyl maltose and maltose formed in the reaction mixture, by high-performance liquid chromatography (abbreviated as “HPLC” hereinafter). HPLC was carried out using “YMC PACK ODS-AQ303 column” commercialized by YMC Co., Ltd., Tokyo, Japan, at a column temperature of 40° C. and a flow rate of 0.5 ml/min of water; and using “RI-8012”, a differential refractometer commercialized by Tosoh Corporation, Tokyo, Japan. One unit activity of the α-isomaltosylglucosaccharide-forming enzyme is defined as the enzyme amount that forms one micromole of maltose per minute under the above enzymatic reaction conditions.
The influence of metal ions on the activity of α-isomaltosylglucosaccharide-forming enzyme was examined in the presence of 1 mM of each metal-ion according to the assay for the enzyme activity.

[5] = tested on: α-isomaltosylglucosaccharide-forming enzyme from Bacillus globisporus C9 strain; test: Specificity of saccharide transferring reaction acceptor, enzyme of Strain C9; assay type: biochemical; settings: 1.6% acceptor, 4% PINE-DEX #100 as donor, one unit/g donor, 30° C., pH 6.0, 24 hours; GLC or HPLC
Description: (§3) Using different saccharides, it was tested whether the saccharides were used as saccharide transferring reaction acceptors for the α-isomaltosylglucosaccharide-forming enzyme. A 1.6% solution, as a solution of saccharide transferring reaction acceptor, of D-glucose, D-xylose, L-xylose, D-galactose, D-fructose, D-mannose, D-arabinose, D-fucose, L-sorbose, L-rhamnose, methyl-α-glucopyranoside (methyl-α-glucose), methyl-β-glucopyranoside ([…]), N-acetyl-glucosamine, sorbitol, α,α-trehalose, isomaltose, isomaltotriose, cellobiose, gentibiose, maltitol, lactose, sucrose, α-cyclodextrin, β-cyclodextrin, or γ-cyclodextrin, was prepared. To each solution with a saccharide concentration was added “PINE-DEX #100”, a partial starch hydrolysate, as a saccharide donor, to give a concentration of 4%, and admixed with one unit/g saccharide donor, d.s.b., of either of purified specimens of α-isomaltosylglucosaccharide-forming enzyme from Bacillus globisporus C9 strain obtained by the method in Experiment 2-1, Bacillus globisporus C11 strain obtained by the method in Experiment 4-1. The resulting mixture solutions were incubated at 30° C. and pH 6.0 except that the enzyme from Arthrobacter globiformis A19 strain was incubated at pH 8.4 for 24 hours. The reaction mixtures of the post-enzymatic reactions were analyzed on gas chromatography (abbreviated as “GLC” hereinafter) for monosaccharides and disaccharides as acceptors, and on HPLC for trisaccharides as acceptors to confirm whether these saccharides could be used as their saccharide transferring reaction acceptors. In the case of performing GLC, the following apparatuses and conditions are used: GLC apparatus, “GC-16A” commercialized by Shimadzu Corporation, Tokyo, Japan; column, a stainless-steel column, 3 mm in diameter and 2 m in length, packed with 2% “SILICONE OV-17/CHROMOSOLV W”, commercialized by GL Sciences Inc., Tokyo, Japan; carrier gas, nitrogen gas at a flow rate of 40 ml/min under temperature conditions of increasing from 160° C. to 320° C. at an increasing temperature rate of 7.5° C./min; and detection, a hydrogen flame ionization detector.
(§4) In the case of HPLC analysis, the apparatuses and conditions used were: HPLC apparatus, “CCPD” commercialized by Tosoh Corporation, Tokyo, Japan; column, “ODS-AQ-303” commercialized by YMC Co., Ltd., Tokyo, Japan; eluent, water at a flow rate of 0.5 ml/min; and detection, a differential refractometer.

[6] = tested on: α-isomaltosylglucosaccharide-forming enzyme from Bacillus globisporus C9; test: Action of α-isomaltosylglucosaccharide-forming enzyme on saccharides as substrates (TLC), enzyme of Strain C9; assay type: biochemical; design: key: −: it showed no change; +: it showed a slight reduction of the color of substrate spot and the formation of other reaction product; ++: it showed a high reduction of the color of substrate spot and the formation of other reaction product; +++: it showed a substantial disappearance of the color of substrate spot and the formation of other reaction product; settings: two units/g substrate, substrate 2% (w/v), 30° C., pH 6.0, 24 hours
Description: (§5) The action of α-isomaltosylglucosaccharide-forming enzyme on saccharides as substrates was tested. First, a solution of maltose, maltotriose, maltotetraose, maltopentaose, maltohexaose, maltoheptaose, isomaltose, isomaltotriose, panose, isopanose, α,α-trehalose (may be abbreviated as “trehalose” hereinafter), kojibiose, nigerose, neotrehalose, cellobiose, gentibiose, maltitol, maltotriitol, lactose, sucrose, erlose, selaginose, maltosyl glucoside, or isomaltosyl glucoside was prepared. To each of the above solutions was added two units/g substrate of the purified specimen of α-isomaltosylglucosaccharide-forming enzyme from Bacillus globisporus C9 in Experiment 2-1 or Bacillus globisporus C11 in Experiment 4-1, and each resulting solution was adjusted to give a substrate concentration of 2% (w/v) and incubated at 30° C. and pH 6.0 for 24 hours. The solutions before and after the enzymatic reactions were respectively subjected to thin-layer chromatography (abbreviated as “TLC” hereinafter). TLC was carried out in such a manner of separating saccharides by developing the solutions twice each using, as a developer, a mixture solution of n-butanol, pyridine, and water (=6:4:1), and, as a thin-layer plate, “[…] 60”, an aluminum plate (20×20 cm) for TLC commercialized by Merck & Co., Inc., Rahway, USA.; detecting the total saccharides in each mixture solution by spraying a mixture of sulfuric acid and methanol onto the aluminum plates to develop color of the total saccharides and detecting non-reducing saccharides in each mixture solution by the diphenylamine-aniline method.

[7] = tested on: α-isomaltosylglucosaccharide-forming enzyme from Bacillus globisporus C11; test: Action of α-isomaltosylglucosaccharide-forming enzyme on saccharides as substrates (TLC), enzyme of Strain C11; assay type: biochemical; design: key: −: it showed no change; +: it showed a slight reduction of the color of substrate spot and the formation of other reaction product; ++: it showed a high reduction of the color of substrate spot and the formation of other reaction product; +++: it showed a substantial disappearance of the color of substrate spot and the formation of other reaction product; settings: two units/g substrate, substrate 2% (w/v), 30° C., pH 6.0, 24 hours
Description: as §5

[8] = tested on: α-isomaltosylglucosaccharide-forming enzyme from Bacillus globisporus C11 strain; test: Specificity of saccharide transferring reaction acceptor, enzyme of Strain C11; assay type: biochemical; settings: 1.6% acceptor, 4% PINE-DEX #100 as donor, one unit/g donor, 30° C., pH 6.0, 24 hours; GLC or HPLC
Description: as §3, §4

Row | Relative activity [1] | Relative activity [2] | Relative activity [3] | Relative activity [4] | Enzymatic action, Enzyme of Strain C9 [6] | Enzymatic action, Enzyme of Strain C11 [7] | Structure (SMILES) | Product of saccharide transferring reaction, Enzyme of Strain C9 [5] | Product of saccharide transferring reaction, Enzyme of Strain C11 [8] | other results
1 | 89% | 103% | 100% | 99% |  |  | [Al+3] [Al^3+] |  |  | 
2 | 91% | 101% | 109% | 115% |  |  | [Ca+2] [Ca^2+] |  |  | Effect on enzyme activity (in words) [1]: not activated; Effect on enzyme activity (in words) [2]: not activated; Effect on enzyme activity (in words) [3]: activated; Effect on enzyme activity (in words) [4]: activated
3 | 56% | 57% | 23% | 15% |  |  | [Cu+2] [Cu^2+] |  |  | Effect on enzyme activity (in words) [1]: inhibited; Effect on enzyme activity (in words) [2]: inhibited; Effect on enzyme activity (in words) [3]: greatly inhibited; Effect on enzyme activity (in words) [4]: greatly inhibited
4 |  | 96% | 100% |  |  |  | [Fe+2] [Fe^2+] |  |  | Relative activity ([2]; listed as Fe^3+): 105%; Relative activity ([3]; listed as Fe^3+): 102%
5 |  |  |  |  | − | − | OC[C@H]1O[C@@H](O[C@H]2[C@H](O)[C@@H](O)C(O)O[C@@H]2CO)[C@H](O)[C@@H](O)[C@H]1O (stereo partly shown) [Lactose, lactose] | ++ (a saccharide-transferred product was detected in an amount of at least ten percent through transferring reaction to acceptor) | ++ (a saccharide-transferred product was detected in an amount of at least ten percent through transferring reaction to acceptor) | 
6 |  |  |  |  | − | − | OC[C@@H](O)[C@@H](O[C@H]1O[C@H](CO)[C@@H](O)[C@H](O)[C@H]1O)[C@H](O)[C@@H](O)CO [Maltitol, maltitol] | ++ (a saccharide-transferred product was detected in an amount of at least ten percent through transferring reaction to acceptor) | ++ (a saccharide-transferred product was detected in an amount of at least ten percent through transferring reaction to acceptor) | 
7 | 91% |  |  | 100% |  |  | [Mg+2] [Mg^2+] |  |  | 
8 |  |  |  |  | − | − | OC[C@H]1O[C@@](CO)(O[C@H]2O[C@H](CO)[C@@H](O)[C@H](O)[C@H]2O)[C@@H](O)[C@@H]1O [Sucrose, sucrose] | ++ (a saccharide-transferred product was detected in an amount of at least ten percent through transferring reaction to acceptor) | ++ (a saccharide-transferred product was detected in an amount of at least ten percent through transferring reaction to acceptor) | 
9 |  |  |  |  | − | − | OC[C@H]1O[C@H](O[C@H]2O[C@H](CO)[C@@H](O)[C@H](O)[C@H]2O)[C@H](O)[C@@H](O)[C@@H]1O [Trehalose, α,α-trehalose] | ++ (a saccharide-transferred product was detected in an amount of at least ten percent through transferring reaction to acceptor) | ++ (a saccharide-transferred product was detected in an amount of at least ten percent through transferring reaction to acceptor) | 

Row | Structure (SMILES) | Relative activity [1] | Relative activity [2] | Relative activity [3] | Relative activity [4] | Enzymatic action, Enzyme of Strain C9 [6] | Enzymatic action, Enzyme of Strain C11 [7] | Product of saccharide transferring reaction, Enzyme of Strain C9 [5] | Product of saccharide transferring reaction, Enzyme of Strain C11 [8] | other results
10 | [Ba+2] [Ba^2+] | 90% | 102% | 65% | 65% |  |  |  |  | Effect on enzyme activity (in words) [3]: inhibited; Effect on enzyme activity (in words) [4]: inhibited
11 | [Co+2] [Co^2+] | 89% | 103% | 96% | 100% |  |  |  |  | 
12 | [Ni+2] [Ni^2+] | 89% | 102% | 93% |  |  |  |  |  | 

Source: patent US20080241904A1, “PROCESS FOR PRODUCING ISOMALTOSE AND USES THEREOF” (KABUSHIKI KAISHA HAYASHIBARA SEIBUTSU KAGAKU KENKYUJO, priority 2001, published 2008)
